This note sets out measurements from patent US20240306641A1, “P-BOOSTER” (EUROCHEM ANTWERPEN, priority 2021, published 2024).

Holding throughout (assay type): in vivo
The subject of one assay is soybean cultivar Primus. Description: Soybean pot experiment. Conditions: low phosphate, 4 weeks. The protocol: All Arabidopsis plant experiments were performed using the Arabidopsis thaliana Columbia-0 background. The Arabidopsis pSPX1::GUS line is described in the […] 2008, 54: 965-975. For rice, the cultivar Nipponbare was used. For maize, the cultivars DKC 2931 and 8104 were used for regular pot experiments and sand-based pot experiments, respectively. For soybean, the cultivar Primus was used. […] The medium was solidified due to the addition of 0.6% Gelrite, unless stated otherwise. […]
Regular Arabidopsis, soybean and maize pot experiments used an unfertilized potting soil, which was supplemented at the start of the experiment with 50 ml H2O containing 0.25 g/l NH4NO3 and 0.44 g/l (high phosphate) or no (maize and soybean) or 0.11 g/l KH2PO (Arabidopsis) for low phosphate conditions. […] Compound concentration was 10 μM, calculated based on the total water content after watering, and was added at the start of the experiment (Arabidopsis) or once a week (maize). […] All parameters in the sand experiment, except the rate of leaf 4 (measured the first 4 days after emergence), were measured 19 days after sowing. Measurements in the pot experiments with potting soil were done after 4 weeks of growth, except for leaf 5, which was measured at 26 days. […]

The test system of assay [1] is Arabidopsis thaliana Columbia-0. Put plainly: Arabidopsis pot experiment (rosette size, soil phosphate, anthocyanin). The procedure: Regular Arabidopsis, soybean and maize pot experiments used an unfertilized potting soil, which was supplemented at the start of the experiment with 50 ml H2O containing 0.25 g/l NH4NO3 and 0.44 g/l (high phosphate) or no (maize and soybean) or 0.11 g/l KH2PO (Arabidopsis) for low phosphate conditions. For the sand-based maize pot experiment, sand was supplemented with 50 ml H2O containing 0.25 g/l NH4NO3 and 0.38 g/l (high phosphate) or 0.02 g/l (low phosphate) KH2PO4. Potassium was balanced via addition of KCl. Compound concentration was 10 μM, calculated based on the total water content after watering, and was added at the start of the experiment (Arabidopsis) or once a week (maize). Indexed chlorophyll contents were received via a SPAD 502 Plus Chlorophyll Meter. All parameters in the sand experiment, except the rate of leaf 4 (measured the first 4 days after emergence), were measured 19 days after sowing. Measurements in the pot experiments with potting soil were done after 4 weeks of growth, except for leaf 5, which was measured at 26 days. The long term maize pot experiment was performed on the automated Phenovision platform (see Mertens et al, 2021, https://doi.org/10.3389/fpls.2021.640914) with maize cultivars B104 and DKC2931. End point measurements occurred after 90 days (B104) or 70 days (DKC2931). Plants were grown on an unfertilized potting soil, which was fertilized bi-weekly with 50 mL modified Hoagland solution (2.5× concentrated; but with 0.25 mM KH2PO4). Col-0 ecotype Arabidopsis seeds were sown in 96-well plates containing 150 μl of low phosphate modMS liquid medium containing 1% of sucrose. Compounds was added in 50 μM concentration (1% DMSO). 7 days after germination, plates were scanned using a flatbed scanner (EPSON Expression 11000XL) and wells containing non-germinated seedlings were excluded from the following analysis. Plants were removed from each well and 50 μl of medium was recovered from each well and used for molybdenum blue staining as described in Plant Physiology 2008, 146:1673-1686. To measure the phosphate level in soil, Olsen P extraction was used on 1 g of air dried soil, 500 ul of extract was used for molybdenum blue staining as described in The Plant cell 2013, 25:1641-1656. Values were expressed relative to the low phosphate control. Col-0 ecotype Arabidopsis seeds were sown in 96-well plates containing 150 μl of low phosphate modMS liquid medium containing 1% of sucrose. […] Extraction and quantification of anthocyanin levels was carried out according to The Plant cell 2013, 25:1641-1656. Anthocyanin levels were quantified by measuring absorption at 530 and 657 nm using a spectrophotometer and normalized to fresh weight input, and expressed relative to the low phosphate control. […]

The test system is the same in assay [2]. Put plainly: Arabidopsis vertical plate growth assay (primary root length, shoot biomass). Conditions: low phosphate. The procedure:
All Arabidopsis plant experiments were performed using the Arabidopsis thaliana Columbia-0 background. The Arabidopsis pSPX1::GUS line is described in the […] 2008, 54: 965-975. For rice, the cultivar Nipponbare was used. For maize, the cultivars DKC 2931 and 8104 were used for regular pot experiments and sand-based pot experiments, respectively. For soybean, the cultivar Primus was used. […] The medium was solidified due to the addition of 0.6% Gelrite, unless stated otherwise. In case of vertical plates (root length and root hair measurements), the medium was supplied with 0.5% of sucrose and 1 μM (low phosphate, 1 μM KH2PO4, 9.9 mM KCl), 10 μM (low phosphate 10 μM KH2PO4, 9.9 mM KCl) or 1.25 mM KH2PO4 (high phosphate). Arabidopsis seeds were stratified for 2 days at 4° C. before germination. Seedlings were germinated in climate-controlled growth chambers at 22° C. under continuous light ([…] m^−2 s^−1). Husked rice seeds were germinated on wetted Whatman paper for 2 days at 37° C. and then transferred to Sterivent boxes or square Petri dishes with solid medium. Maize and soybean seeds were wetted 24 hours at room temperature prior to sowing in pots.
Arabidopsis primary root growth experiments were done on MS1/2 on vertical standing plates and roots were measured 11 days after germination. Roots were imaged using a flatbed scanner (EPSON Expression 11000XL) and root length was measured using ImageJ software. Arabidopsis shoot biomass was determined in 11 days after germination and growth on vertical standing plates with modMS. Arabidopsis leaf area was measured 21 days after germination on horizontal plates with modMS medium. Plates were scanned from the top using a flatbed scanner (EPSON Expression 11000XL) and the visible leaf area was measured using ImageJ software. Rice plate experiments used vertically standing Petri dishes containing MS1/2 medium (low phosphate—0.001 mM) solidified with 0.8% washed agar. Plant height was measured 11 days after germination. […] Plant height was measured 13 days after germination. […]

Setting [3] is: Arabidopsis vertical plate, 10 μM compound, 11 days after germination.

With `CCN(CCCNc1ncnc2nc(N)ccc12)c1ccccc1` [Example 1], in the assay on soybean cultivar Primus, the Biomass stood at 4.4 g and the Plant height is 63 cm. Besides, the Relative anthocyanin level in assay [1] (Arabidopsis pot, 4-week old plant, relative to low phosphate control (=1)) was 0.7. Also, the “Phosphate level in soil (relative value)” value in assay [1] (Arabidopsis pot, Olsen P, after 4 weeks, relative to low phosphate control (=1)) is 0.8. This compound also displayed a Rosette size in assay [1] (Arabidopsis pot, low phosphate, 10 μM compound, 4 weeks) of 17 cm^2. For the same compound, in assay [1] (plants grown in pots), the “Anthocyanin level in the leaves (in words)” value is on record as “reduced”. For the same compound, in assay [2] (10 μM, 11-day-old Arabidopsis), the “Primary root length compared with the control without compound (in words)” value is given as “almost double the length of the control”. Further, in assay [2] (setting [3]), the Primary root length was 3.4 cm and the Shoot biomass was found to be 21 mg.
